# According to the supplement of paper PMC13380429:
# ± gives the standard deviation of the averaged measurements.
# Assays:
# Conditions in all cases: 72 h
# [1] = tested on: HepG2; assay: drug sensitivity score (DSS) for viability; higher = more toxic; extreme values may be limits of the assay
# [2] = tested on: Caco-2; assay: as above
# [3] = tested on: U2OS; assay: as above
# [4] = tested on: Calu-3; assay: as above
# [5] = tested on: Vero E6; assay: as above
# [6] = tested on: HepG2; assay: cell viability relative to DMSO; higher = less toxic
# [7] = tested on: Caco-2; assay: as above
# [8] = tested on: U2OS; assay: as above
# [9] = tested on: Calu-3; assay: as above
# [10] = tested on: Vero E6; assay: as above
# [11] = tested on: HepG2; assay: relative viability EC50 (midpoint between 100% and the lowest measured viability); higher = less toxic
# [12] = tested on: Caco-2; assay: as above
# [13] = tested on: U2OS; assay: as above
# [14] = tested on: Calu-3; assay: as above
# [15] = tested on: Vero E6; assay: as above
Structure (SMILES),drug sensitivity score [1],drug sensitivity score [2],drug sensitivity score [3],drug sensitivity score [4],drug sensitivity score [5],cell viability ([6]; 1 nM),cell viability ([6]; 10 nM),cell viability ([6]; 100 nM),cell viability ([6]; 1000 nM),cell viability ([6]; 10000 nM),cell viability ([7]; 1 nM),cell viability ([7]; 10 nM),cell viability ([7]; 100 nM),cell viability ([7]; 1000 nM),cell viability ([7]; 10000 nM),cell viability ([8]; 1 nM),cell viability ([8]; 10 nM),cell viability ([8]; 100 nM),cell viability ([8]; 1000 nM),cell viability ([8]; 10000 nM),cell viability ([9]; 1 nM),cell viability ([9]; 10 nM),cell viability ([9]; 100 nM),cell viability ([9]; 1000 nM),cell viability ([9]; 10000 nM),cell viability ([10]; 1 nM),cell viability ([10]; 10 nM),cell viability ([10]; 100 nM),cell viability ([10]; 1000 nM),cell viability ([10]; 10000 nM),relative viability EC50 [11],relative viability EC50 [12],relative viability EC50 [13],relative viability EC50 [14],relative viability EC50 [15]
FC(F)(F)c1cccc(-c2noc(-c3cc(-c4ccccc4)c(C(F)(F)F)s3)n2)c1 [SEW-2871],0,0,0,0,0,102%,103%,93.9%,100%,99%,103%,104%,102%,99.8%,108%,93.7%,99.1%,96%,102%,102%,93.2%,91.1%,99.9%,93.3%,98.5%,101%,98%,97.4%,90.7%,110%,> 10 µM,> 10 µM,> 10 µM,> 10 µM,> 10 µM
Cn1cc(-c2ccc3nnc(Sc4ccc5ncccc5c4)n3n2)cn1 [SGX523],0,0,0,0,0,96.2%,95.2%,92.5%,97.2%,103%,92.5%,98.6%,103%,107%,100%,99%,98.6%,101%,93.4%,103%,89%,97.2%,102%,96.5%,100%,94.8%,101%,94.4%,98%,107%,> 10 µM,> 10 µM,> 10 µM,> 10 µM,> 10 µM
CCCNC(=O)N1N=C(c2ccc(N)cc2)c2cc3c(cc2C1C)OCO3 (stereo not given) [SYM-2206],0,0,0,0,0,91.9%,94.8%,95.2%,93%,93.5%,96.6%,102%,95.5%,94.2%,100%,95.1%,101%,97.4%,103%,101%,86.9%,101%,109%,111%,119%,98.5%,92.5%,97.9%,88.9%,98.6%,> 10 µM,> 10 µM,> 10 µM,> 10 µM,> 10 µM
CN[C@@H]1[C@@H](O)[C@@H](O[C@@H]2[C@@H](O)[C@H](O[C@H]3OC(CN)=CC[C@H]3N)[C@@H](N)C[C@H]2N)OC[C@]1(C)O [Sisomicin (sulfate)],0,0,0,0,0,108 ± 8.4%,101 ± 4.7%,107 ± 7.3%,96.8 ± 1.3%,98.1 ± 4.1%,100 ± 6.2%,100 ± 4.2%,103 ± 2.8%,100 ± 0.78%,94.15 ± 0.49%,101 ± 0.64%,102 ± 0.49%,99.7 ± 0.99%,105 ± 3.1%,99.4 ± 0.71%,105 ± 7.6%,101.8 ± 0.35%,97.1 ± 0.28%,101 ± 4.5%,105 ± 5.2%,107 ± 8.3%,107 ± 1.6%,105 ± 4.5%,98.5 ± 1.6%,104 ± 2.9%,> 10 µM,> 10 µM,> 10 µM,> 10 µM,> 10 µM
CN(C)C/C=C/C(=O)Nc1cccc(C(=O)Nc2cccc(Nc3ncc(Cl)c(-c4c[nH]c5ccccc45)n3)c2)c1 [THZ2],24.2,7.1,16.8,14.9,5.9,114%,89.4%,44.7%,3.5%,2.7%,97.8%,99.9%,98.4%,80.9%,25.6%,97.8%,102%,96.6%,10.2%,8.3%,103%,104%,83.1%,33.5%,42.9%,104%,103%,103%,95%,6.5%,0.0771 µM,1.53 µM,0.303 µM,0.154 µM,2.75 µM
CC(C)(O)c1ccn2c(-c3ccc(F)c(-c4ccc(F)cc4C#N)c3)cnc2c1F [TP-003],0,0,0,0,0,98.3%,96.4%,97.9%,103%,102%,98.7%,96%,93.6%,103%,95.6%,96.7%,94.1%,104%,96.5%,99.4%,106%,91.9%,102%,114%,92.7%,97.6%,99.1%,92.3%,103%,103%,> 10 µM,> 10 µM,> 10 µM,> 10 µM,> 10 µM
CN1CCN(Cc2ccc(Nc3ncc(Cl)c(Nc4ccccc4S(=O)(=O)N(C)C)n3)cc2)CC1 [TP-0903],11.2,5.9,6.2,0.3,8.8,107%,109%,99.8%,50.4%,7%,109%,96.3%,102%,85.9%,33.4%,95%,98.2%,95.1%,89.1%,21%,92.3%,92%,89%,110%,80.2%,112%,105%,103%,75.8%,7.4%,0.948 µM,1.69 µM,2.06 µM,> 10 µM,1.51 µM
Cc1ccc(-c2ccc(F)cc2COc2ccc(CCC(=O)O)cc2)cc1 [TUG-891],0,0,0,0,0,109%,96.7%,100%,117%,110%,93.8%,91.7%,87.9%,98.5%,92.4%,97.8%,101%,94.2%,93.6%,99.2%,93.6%,97.7%,105%,96.6%,105%,101%,102%,100%,97.9%,99%,> 10 µM,> 10 µM,> 10 µM,> 10 µM,> 10 µM
C[C@]12C=CC(=O)C=C1CC[C@@H]1[C@@H]2CC[C@]2(C)OC(=O)CC[C@@H]12 [Testolactone],0,0,0,0,0,66.7%,103%,93.1%,94.1%,111%,94%,97.1%,87.1%,91.1%,93.8%,95.8%,98.2%,95.4%,102%,91.8%,98.5%,97.3%,101%,99.5%,105%,98.5%,91.3%,94.9%,88.1%,96.8%,> 10 µM,> 10 µM,> 10 µM,> 10 µM,> 10 µM
CCCCCCCCCCC(=O)O[C@H]1CC[C@H]2[C@@H]3CCC4=CC(=O)CC[C@]4(C)[C@H]3CC[C@]12C [Testosterone (undecanoate)],0,0,0,0,0,95.6%,106%,92.4%,99.4%,96.9%,87.3%,92.9%,104%,96.7%,91.5%,99.8%,94.4%,102%,99.4%,97.7%,103%,94.7%,96.5%,94.4%,100%,98.5%,97.2%,99.2%,95.5%,94.9%,> 10 µM,> 10 µM,> 10 µM,> 10 µM,> 10 µM
O=C(c1cccc(Br)c1)N1CCC(N2CCCC2)CC1 [UNC926],0,0,0,0,0,100%,104%,90.4%,104%,108%,99.8%,98.4%,102%,100%,92.8%,102%,97.2%,99.5%,102%,101%,93.7%,90.2%,113%,92.6%,96.4%,90.9%,101%,91.5%,96.4%,107%,> 10 µM,> 10 µM,> 10 µM,> 10 µM,> 10 µM
O=C(c1ccc(C(=O)N2CCC(N3CCCC3)CC2)c(Nc2ccccc2)c1)N1CCC(N2CCCC2)CC1 [UNC1215],0,0,0,0,0,98.6%,99.2%,96.7%,98%,103%,108%,97.7%,100%,110%,94.1%,104%,102%,100%,97.9%,105%,105%,111%,106%,93.4%,101%,94%,95.9%,101%,99.6%,99.9%,> 10 µM,> 10 µM,> 10 µM,> 10 µM,> 10 µM
NC(=O)c1ccc(N(C(N)=O)c2c(F)cccc2F)nc1-c1ccc(F)cc1F [VX-702],0,1.1,0,0,0.7,101%,109%,91.9%,110%,108%,102%,89.9%,103%,85.6%,88.4%,97.8%,96.2%,96.8%,92.6%,94.4%,101%,94.4%,94%,95.4%,87.8%,92.7%,105%,88.5%,89.1%,89.1%,> 10 µM,> 10 µM,> 10 µM,> 10 µM,> 10 µM
